From patent publication US20250270213A1, “PI3Ka INHIBITORS” (Synnovation Therapeutics, Inc., priority 2022, published 2025)

Test system: T47D (PIK3CA H1047R) cells
Assay: pS473 AKT assay with 2.5% FBS, T47D cells
Format: cell-based
Settings: Homo sapiens, pSer473 AKT, DMEM with 2.5% FBS, 2 h treatment, read-out: T47D_IC50
Procedure, shortened: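 In-cell chemiluminescent ELISA of AKT Ser473 phosphorylation, using anti-pSer473 primary and HRP secondary antibodies on fixed cells. T47D (PIK3CA H1047R) cells had 2 h of compound treatment in DMEM containing 2.5% FBS; IC50 derived from dose-response.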

IC50, < 1000 nM:
Cc1cc(C(C)Nc2ccc(Cl)nc2-c2ccc3c(cnn3C)c2)c2c(c1)c(=O)n(C)c1c2cnn1CCO (centres unmarked) [Example 247, 9-(1-((6-chloro-2-(1-methyl-1H-indazol-5-yl)pyridin-3-yl)amino)ethyl)-3-(2-hydroxyethyl)-4,7-dimethyl-3,4-dihydro-5H-pyrazolo[3,4-c]isoquinolin-5-one]
Cc1cc(C(C)Nc2ccc(Cl)nc2-c2ccc3c(c2)CN(C)C3=O)c2c(c1)c(=O)n(C)c1c2cnn1CCO (centres unmarked) [Example 248, 9-(1-((6-chloro-2-(2-methyl-1-oxoisoindolin-5-yl)pyridin-3-yl)amino)ethyl)-3-(2-hydroxyethyl)-4,7-dimethyl-3,4-dihydro-5H-pyrazolo[3,4-c]isoquinolin-5-one]
Cc1cc(C(C)Nc2ccc(C)nc2-c2cnn(C)c2)c2c(c1)c(=O)n(C)c1c2cnn1CCO (centres unmarked) [Example 249, 3-(2-hydroxyethyl)-4,7-dimethyl-9-(1-((6-methyl-2-(1-methyl-1H-pyrazol-4-yl)pyridin-3-yl)amino)ethyl)-3,4-dihydro-5H-pyrazolo[3,4-c]isoquinolin-5-one]
Cc1cc(C(C)Nc2ccc(Cl)nc2-c2nnco2)c2c(c1)c(=O)n(C)c1c2cnn1CCO (centres unmarked) [Example 250, 9-(1-((6-chloro-2-(1,3,4-oxadiazol-2-yl)pyridin-3-yl)amino)ethyl)-3-(2-hydroxyethyl)-4,7-dimethyl-3,4-dihydro-5H-pyrazolo[3,4-c]isoquinolin-5-one]
Cc1cc(C(C)Nc2ccc(Cl)nc2-c2nnn(C)n2)c2c(c1)c(=O)n(C)c1c2cnn1CCO (centres unmarked) [Example 251, 9-(1-((6-chloro-2-(2-methyl-2H-tetrazol-5-yl)pyridin-3-yl)amino)ethyl)-3-(2-hydroxyethyl)-4,7-dimethyl-3,4-dihydro-5H-pyrazolo[3,4-c]isoquinolin-5-one]
Cc1cc(C(C)Nc2ccc(Cl)nc2-c2cncnc2)c2c(c1)c(=O)n(C)c1c2cnn1CCO (centres unmarked) [Example 252, 9-(1-((6-chloro-2-(pyrimidin-5-yl)pyridin-3-yl)amino)ethyl)-3-(2-hydroxyethyl)-4,7-dimethyl-3,4-dihydro-5H-pyrazolo[3,4-c]isoquinolin-5-one]
CNC(=O)c1ccc(-c2nc(Cl)ccc2NC(C)c2cc(C)cc3c(=O)n(C)c4c(cnn4CCO)c23)cn1 (centres unmarked) [Example 253, 5-[6-Chloro-3-[1-[3-(2-hydroxyethyl)-4,7-dimethyl-5-oxo-pyrazolo[3,4-c]isoquinolin-9-yl]ethylamino]-2-pyridyl]-N-methyl-pyridine-2-carboxamide]
Cc1cc(C(C)Nc2ccc(Cl)nc2-c2ccc(=O)n(C)c2)c2c(c1)c(=O)n(C)c1c2cnn1CCO (centres unmarked) [Example 254, 9-[1-[[6-chloro-2-(1-methyl-6-oxo-3-pyridyl)-3-pyridyl]amino]ethyl]-3-(2-hydroxyethyl)-4,7-dimethyl-pyrazolo[3,4-c]isoquinolin-5-one]
Cc1cc(C(C)Nc2ccc(Cl)nc2-c2ccn(C)c(=O)c2)c2c(c1)c(=O)n(C)c1c2cnn1CCO (centres unmarked) [Example 255, 9-[1-[[6-chloro-2-(1-methyl-2-oxo-4-pyridyl)-3-pyridyl]amino]ethyl]-3-(2-hydroxyethyl)-4,7-dimethyl-pyrazolo[3,4-c]isoquinolin-5-one]
COc1cc(-c2nc(Cl)ccc2NC(C)c2cc(C)cc3c(=O)n(C)c4c(cnn4CCO)c23)ccn1 (centres unmarked) [Example 256, 9-[1-[[6-chloro-2-(2-methoxy-4-pyridyl)-3-pyridyl]amino]ethyl]-3-(2-hydroxyethyl)-4,7-dimethyl-pyrazolo[3,4-c]isoquinolin-5-one]
Cc1cc(C(C)Nc2ccc(Cl)nc2C2CCN(C)CC2)c2c(c1)c(=O)n(C)c1c2cnn1CCO (centres unmarked) [Example 257, 9-[1-[[6-Chloro-2-(1-methyl-4-piperidyl)-3-pyridyl]amino]ethyl]-3-(2-hydroxyethyl)-4,7-dimethyl-pyrazolo[3,4-c]isoquinolin-5-one]
CC(=O)N1CCC(c2nc(Cl)ccc2NC(C)c2cc(C)cc3c(=O)n(C)c4c(cnn4CCO)c23)CC1 (centres unmarked) [Example 258, 9-[1-[[2-(1-Acetyl-4-piperidyl)-6-chloro-3-pyridyl]amino]ethyl]-3-(2-hydroxyethyl)-4,7-dimethyl-pyrazolo[3,4-c]isoquinolin-5-one]
Cc1cc(C(C)Nc2ccc(Cl)nc2-c2ncn(C)n2)c2c(c1)c(=O)n(CC(F)F)c1c2cnn1CCO (centres unmarked) [Example 259, 9-[1-[[6-Chloro-2-(1-methyl-1,2,4-triazol-3-yl)-3-pyridyl]amino]ethyl]-4-(2,2-difluoroethyl)-3-(2-hydroxyethyl)-7-methyl-pyrazolo[3,4-c]isoquinolin-5-one]
CNC(=O)c1ccc(-c2nc(Cl)ccc2NC(C)c2cc(C)cc3c(=O)n(CC(F)F)c4c(cnn4CCO)c23)cn1 (centres unmarked) [Example 260, 5-[6-Chloro-3-[1-[4-(2,2-difluoroethyl)-3-(2-hydroxyethyl)-7-methyl-5-oxo-pyrazolo[3,4-c]isoquinolin-9-yl]ethylamino]-2-pyridyl]-N-methyl-pyridine-2-carboxamide]
CCn1c(=O)c2cc(C)cc(C(C)Nc3ccc(Cl)nc3-c3ncn(C)n3)c2c2cnn(CCO)c21 (centres unmarked) [Example 261, 9-[1-[[6-Chloro-2-(1-methyl-1,2,4-triazol-3-yl)-3-pyridyl]amino]ethyl]-4-ethyl-3-(2-hydroxyethyl)-7-methyl-pyrazolo[3,4-c]isoquinolin-5-one]
CCn1c(=O)c2cc(C)cc(C(C)Nc3ccc(Cl)nc3N3CCOCC3)c2c2cnn(CCO)c21 (centres unmarked) [Example 262, 9-[1-[(6-Chloro-2-morpholino-3-pyridyl)amino]ethyl]-4-ethyl-3-(2-hydroxyethyl)-7-methyl-pyrazolo[3,4-c]isoquinolin-5-one]
Cc1cc(C(C)Nc2ccc(Cl)nc2-c2cnn(C)c2)c2c(c1)c(=O)n(C)c1c2cnn1CCN1CCOCC1 (centres unmarked) [Example 263, 9-[1-[[6-Chloro-2-(1-methylpyrazol-4-yl)-3-pyridyl]amino]ethyl]-4,7-dimethyl-3-(2-morpholinoethyl)pyrazolo[3,4-c]isoquinolin-5-one]
Cc1cc(C(C)Nc2ccc(Cl)nc2-c2ccncc2F)c2c(c1)c(=O)n(C)c1c2cnn1CCN1CCOCC1 (centres unmarked) [Example 264, 9-(1-((6-chloro-3′-fluoro-[2,4′-bipyridin]-3-yl)amino)ethyl)-4,7-dimethyl-3-(2-morpholinoethyl)-3,4-dihydro-5H-pyrazolo[3,4-c]isoquinolin-5-one]
Cc1cc(C(C)Nc2ccc(Cl)nc2-c2ccncc2F)c2c(c1)c(=O)n(C)c1c2cnn1CCN1CCN(C)CC1 (centres unmarked) [Example 265, 9-(1-((6-chloro-3′-fluoro-[2,4′-bipyridin]-3-yl)amino)ethyl)-4,7-dimethyl-3-(2-(4-methylpiperazin-1-yl)ethyl)-3,4-dihydro-5H-pyrazolo[3,4-c]isoquinolin-5-one]
CNC(=O)c1ccc(-c2nc(Cl)ccc2NC(C)c2cc(C)cc3c(=O)n(C)c4c(cnn4CCN4CCOCC4)c23)cc1F (centres unmarked) [Example 266, 4-(6-chloro-3-((1-(4,7-dimethyl-3-(2-morpholinoethyl)-5-oxo-4,5-dihydro-3H-pyrazolo[3,4-c]isoquinolin-9-yl)ethyl)amino)pyridin-2-yl)-2-fluoro-N-methylbenzamide]
CNC(=O)c1ccc(-c2nc(Cl)ccc2NC(C)c2cc(C)cc3c(=O)n(C)c4c(cnn4CCN4CCN(C)CC4)c23)cc1F (centres unmarked) [Example 267, 4-(6-chloro-3-((1-(4,7-dimethyl-3-(2-(4-methylpiperazin-1-yl)ethyl)-5-oxo-4,5-dihydro-3H-pyrazolo[3,4-c]isoquinolin-9-yl)ethyl)amino)pyridin-2-yl)-2-fluoro-N-methylbenzamide]
Cc1cc(C(C)Nc2ccc(Cl)nc2-c2ncn(C)n2)c2c(c1)c(=O)n(CC(F)F)c1c2cnn1CCN1CCn2ncnc2C1 (centres unmarked) [Example 268, 9-(1-((6-chloro-2-(1-methyl-1H-1,2,4-triazol-3-yl)pyridin-3-yl)amino)ethyl)-4-(2,2-difluoroethyl)-3-(2-(5,6-dihydro-[1,2,4]triazolo[1,5-a]pyrazin-7(8H)-yl)ethyl)-7-methyl-3,4-dihydro-5H-pyrazolo[3,4-c]isoquinolin-5-one]
CCn1c(=O)c2cc(C)cc(C(C)Nc3ccc(Cl)nc3-c3ncn(C)n3)c2c2cnn(-c3ccccn3)c21 (centres unmarked) [Example 269, 9-[1-[[6-Chloro-2-(1-methyl-1,2,4-triazol-3-yl)-3-pyridyl]amino]ethyl]-4-ethyl-7-methyl-3-(2-pyridyl)pyrazolo[3,4-c]isoquinolin-5-one]
CCn1c(=O)c2cc(C)cc(C(C)Nc3ccc(Cl)nc3N3CCOCC3)c2c2cnn(-c3ccccn3)c21 (centres unmarked) [Example 270, 9-(1-((6-chloro-2-morpholinopyridin-3-yl)amino)ethyl)-4-ethyl-7-methyl-3-(pyridin-2-yl)-3,4-dihydro-5H-pyrazolo[3,4-c]isoquinolin-5-one]
CCn1c(=O)c2cc(C)cc(C(C)Nc3ccc(Cl)nc3-c3ccc(C(=O)NC)nc3)c2c2cnn(-c3ccccn3)c21 (centres unmarked) [Example 271, 6-chloro-3-((1-(4-ethyl-7-methyl-5-oxo-3-(pyridin-2-yl)-4,5-dihydro-3H-pyrazolo[3,4-c]isoquinolin-9-yl)ethyl)amino)-N-methyl-[2,3′-bipyridine]-6′-carboxamide]
Cc1cc(C(C)Nc2ccc(Cl)nc2-c2noc(=O)[nH]2)c2c(c1)c(=O)n(C)c1c2cnn1-c1ccccn1 (centres unmarked) [Example 272, 3-(6-chloro-3-((1-(4,7-dimethyl-5-oxo-3-(pyridin-2-yl)-4,5-dihydro-3H-pyrazolo[3,4-c]isoquinolin-9-yl)ethyl)amino)pyridin-2-yl)-1,2,4-oxadiazol-5(4H)-one]
